Usually GI50 stands for the concentration at which growth is held to half of that of the control. In general, IC50 refers to the point on the concentration scale where inhibition reaches its midpoint. Low readings indicate higher potency, high ones lower potency. As a reminder, the half-life is the time in which the quantity being followed falls by half.

This is an account of results in patent US8143282B2, “Heterocyclic compounds” (S*BIO Pte Ltd., priority 2005, dated 2012).

Data set [1] relates to Colo205 cells. The data set can be described thus: Cell-based proliferation assay for GI50 (CyQUANT), Colo205. The settings on record: Homo sapiens, COLO 205, 96 h treatment, read-out: Cellular or Growth Inhibition Activity in Colo205 cells, GI50. The procedure, abridged:
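Cells were seeded at 1000 (PC3), 5000 (Colo205), 6000 (HCT116) or 4000 (HEP3B) per well and left 24 h at 37° C. Compound treatment lasted 96 h. Growth was read by CyQUANT, and GI50 (50% growth inhibition) came from dose-response curves.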

In data set [2] the test system is HCT116. The data set can be described thus: Cell-based proliferation assay for GI50 (CyQUANT), HCT116. The conditions noted are these: Homo sapiens, HCT-116; HCT116, 96 h treatment; read-out: Cellular or Growth Inhibition Activity, GI50, HCT116. The method, then: (§1) Human colon cancer cell lines (Colo205, HCT116), Ovarian cancer cell line (A2780), Hepatoma cell line (HEP3B), Prostate cancer cell line (PC3) were obtained from ATCC or ECACC. Colo205 cells were cultivated in RPMI 1640 containing 2 mM L-Glutamine, 5% FBS, 1.0 mM Na Pyruvate, 1 U/ml of penicillin and 1 μg of streptomycin. HCT116 cells were cultivated in McCoy's containing RPMI 1640 containing 2 mM L-Glutamine, 5% FBS, 1 U/ml of penicillin and 1 μg of streptomycin. A2780 cells were cultivated in RPMI 1640 containing 2 mM L-Glutamine, 5% FBS, 1 U/ml of penicillin and 1 μg of streptomycin. HEP3B cells were cultivated in EMEM containing 2 mM L-glutamine, 5% FBS, 1% non essential amino acid, 1 mM Na Pyruvate, 1 U/ml of penicillin and 1 μg of streptomycin. PC3 cells were cultivated in F12K, 2 mM L-glutamine, 5% FBS, 1 U/ml of penicillin and 1 μg of streptomycin. PC3, Colo205, and HCT116 cells were seeded in 96-wells plate at 1000, 5000 and 6000 cells per well respectively. A2780 and HEP3B cells were seeded in 96-wells plate at 4000 cells per well respectively. The plates were incubated at 37° C., 5% CO2, for 24 h. Cells were treated with compounds at various concentrations for 96 h. Cell growth was then monitored using CyQUANT® cell proliferation assay (Invitrogen Pte Ltd). Dose response curves were plotted to determine GI50 values for the compounds using XL-fit (ID Business Solution, Emeryville, Calif.). GI50 is defined as the concentration of compound required for 50% inhibition of cell growth.

Data set [3] relates to A2780. The data set can be described thus: Cell-based proliferation assay for GI50 (CyQUANT), A2780. The conditions noted are these: Homo sapiens; A2780, 96 h treatment; read-out: Cellular or Growth Inhibition Activity, GI50, A2780. The protocol: as §1
Data set [4] concerns PC3. Put plainly: Cell-based proliferation assay for GI50 (CyQUANT), PC3. The settings on record: Homo sapiens, PC-3; PC3, 96 h treatment; read-out: Cellular or Growth Inhibition Activity, GI50, PC3. The method, then: as §1
The target of data set [5] is T1, HDAC1 enzyme (Homo sapiens, UniProt Q13547).
T1 construct: Amplification of human HDAC1 coding region from this cDNA library was cloned separately into the baculovirus expression pDEST20 vector; made in house; host or cells: SF9 insect cells, pDEST20-HDAC1 baculovirus
T1 sequence (Q13547 whole entry): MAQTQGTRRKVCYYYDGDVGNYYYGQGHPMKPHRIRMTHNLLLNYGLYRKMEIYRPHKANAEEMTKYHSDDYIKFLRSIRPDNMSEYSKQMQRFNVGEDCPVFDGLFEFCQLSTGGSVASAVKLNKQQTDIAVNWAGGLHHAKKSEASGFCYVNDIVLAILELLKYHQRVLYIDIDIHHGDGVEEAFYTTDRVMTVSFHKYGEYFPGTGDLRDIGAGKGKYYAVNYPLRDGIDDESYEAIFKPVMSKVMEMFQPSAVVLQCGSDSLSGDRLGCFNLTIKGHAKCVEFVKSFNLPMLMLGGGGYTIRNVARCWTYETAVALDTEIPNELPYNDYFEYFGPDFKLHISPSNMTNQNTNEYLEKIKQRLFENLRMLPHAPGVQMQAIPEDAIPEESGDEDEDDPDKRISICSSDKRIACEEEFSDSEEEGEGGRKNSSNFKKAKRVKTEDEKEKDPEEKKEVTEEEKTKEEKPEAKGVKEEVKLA
The data set can be described thus: In vitro HDAC assay for determination of IC50 values (BIOMOL fluorescent-based HDAC activity assay). Type of data set: biochemical. The procedure, abridged: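 Recombinant GST-HDAC1, cloned from SW620 cDNA and expressed in Sf9 cells, tested in a fluorogenic Fluor de Lys deacetylase assay. Developer was added for 10 min and fluorescence read at 360/460 nm. IC50 came from concentration series.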

Data set [6] is described as follows: Measurement of microsomal stability. Type of data set: in vitro ADME. The conditions noted are these: pooled human liver microsomes, pH 7.4; human liver microsome, 5 μM test compound, 1.0 mg/ml microsomal protein. The protocol: Metabolic stability measurements in the in vitro using liver microsomes aids in the prediction of the in vivo hepatic clearance and the compound stability towards phase I biotransformation reactions mediated by P450 isozymes.
Pooled human liver microsome (HLM was purchased from BD Gentest (BD BioSciences). The incubations consisted of test compound (5 μM) or control compound (Verapamil), NADPH-generating system solution A (25 mM NADP^+, 66 mM glucose-6-phosphate, 66 mM MgCl2 in H2O), NADPH-generating system solution B (40 U/ml glucose-6-phosphate dehydrogenase in 5 mM sodium citrate) and 1.0 mg/ml microsomal protein, respectively, in 100 mM potassium phosphate buffer (pH 7.4). Samples were incubated for 0, 5, 15, 30, 45, 60 min. Reaction was terminated with ice-cold 80% acetonitrile and 20% DMSO. Samples were subsequently centrifuged at 4° C. for 15 min at 2,000 rpm. 100 μL of the supernatant was transferred to the LC-MS Plate for analysis. Before quantitative analysis, the compound was tuned in LC/MS machine to get the optimized MS condition. Liquid chromatography was performed on a Luna C18 column (Phenomenex U.S.A, Torrance, Calif.) (2×50 mm, 5 μM). % of the compound remaining (by area) at each time point is calculated with respect to time 0 min. Plot % remaining against time (min) to obtain the curve and use the Prism software to obtain the t1/2.
(Microsomes from liver hold many membrane-bound enzymes, among them those of drug oxidation.)

Data set [7] deals with acetylated histone H3. Put plainly: Histone H3 acetylation assay (immuno-blotting) in Colo205 cells. Type of data set: cell-based, Human. The conditions noted are these: 10 μM, 24 h, western-blot. The method, then:
A hallmark of histone deacetylase (HDAC) inhibition is the increase in the acetylation level of histones. Histone acetylation, including H3, H4 and H2A can be detected by immuno-blotting (western-blot). Colo205 cells, approximately 5×10^5 cells, were seeded in the previously described medium, cultivated for 24 h and subsequently treated with HDAC inhibitory agents and a positive control at a final concentration of 10 μM. After 24 h, cells were harvested and lysed according to the instruction from Sigma Mammalian Cell Lysis Kit. The protein concentration was quantified using BCA method (Sigma Pte Ltd). The protein lysate was separated using 4-12% bis-tris SDS-PAGE gel (Invitrogen Pte Ltd) and was transferred onto PVDF membrane (BioRad Pte Ltd). The membrane was probed using primary antibody specific for acetylated histone H3 (Upstate Pte Ltd). The detection antibody, goat anti rabbit antibody conjugated with HRP was used according to the manufacturing instruction (Pierce Pte Ltd). After removing the detection antibody from the membrane, an enhanced chemiluminescent substrate for detection of HRP (Pierce Pte Ltd) was added onto the membrane. After removing the substrate, the membrane was exposed to an X-ray film (Kodak) for 1 sec-20 mins. The X-ray film was developed using the X-ray film processor. The density of each band observed on the developed film could be qualitatively analyzed using UVP Bioimaging software (UVP, Inc, Upland, Calif.). The values were then normalized against the density of actin in the corresponding samples to obtain the expression of the protein.

Each structure is given as a SMILES string.

Consider `CCN(CC)CCn1c(CC(C)C)nc2cc(/C=C/C(=O)NO)ccc21` [Compound 7, 3-[1-(2-Diethylamino-ethyl)-2-isobutyl-1H-benzoimidazol-5-yl]-N-hydroxy-acrylamide], for which the GI50 in data set [1] is 810 nM; in data set [2], 1000 to 5000 nM; in data set [3], 1000 to 5000 nM; in data set [4] it was 500 to 1000 nM.

The molecule `CCN(CC)CCn1c(CCC(F)(F)F)nc2cc(/C=C/C(=O)NO)ccc21` [Compound 14, 3-[1-(2-Diethylamino-ethyl)-2-(3,3,3-trifluoro-propyl)-1H-benzoimidazol-5-yl]-N-hydroxy-acrylamide] showed an IC50 in data set [5] of 77 nM. Besides, the GI50 in data set [1] was found to be 630 nM. Moreover, in data set [6], the half-life at 5 μM is > 30 min.

Consider `CC(C)NCCn1c(CC(C)(C)C)nc2cc(/C=C/C(=O)NO)ccc21` [Compound 19], for which half-maximal inhibition in data set [5] (IC50) required 64 nM. For the same molecule, in data set [1], the GI50 was 530 nM. Moreover, the half-life at 5 μM in data set [6] was > 30 min.

For the molecule `CC/C=C\CCc1nc2cc(/C=C/C(=O)NO)ccc2n1CC(C)(C)CN(C)C` [Compound 22, 3-[1-(3-Dimethylamino-2,2-dimethyl-propyl)-2-hex-3-enyl-1H-benzoimidazol-5-yl]-N-hydroxy-acrylamide], the IC50 in data set [5] is 64 nM. In addition, the GI50 in data set [1] was 750 nM; in data set [2] it was 1000 to 5000 nM; in data set [3], < 500 nM; in data set [4], < 500 nM.

`CC(Cc1nc2cc(/C=C/C(=O)NO)ccc2n1CC(C)(C)CN(C)C)CC(C)(C)C` (stereo not shown) [Compound 23, 3-[1-(3-Dimethylamino-2,2-dimethyl-propyl)-2-(2,4,4-trimethyl-pentyl)-1H-benzoimidazol-5-yl]-N-hydroxy-acrylamide] displayed an IC50 in data set [5] of 45 nM. Besides, the GI50 in data set [1] was 190 nM; in data set [2] it was 500 to 1000 nM; in data set [3], < 500 nM; in data set [4], < 500 nM.

For `CC/C=C\CCc1nc2cc(/C=C/C(=O)NO)ccc2n1CCNCC` [Compound 30, 3-[1-(2-Ethylamino-ethyl)-2-hex-3-enyl-1H-benzoimidazol-5-yl]-N-hydroxy-acrylamide], the GI50 in data set [1] is 310 nM; in data set [2] it was 500 to 1000 nM; in data set [3] it was < 500 nM; in data set [4], < 500 nM.

Consider `CC(C)Cc1nc2cc(/C=C/C(=O)NO)ccc2n1CCNC(C)C` [Compound 35, N-Hydroxy-3-[2-isobutyl-1-(2-isopropylamino-ethyl)-1H-benzoimidazol-5-yl]-acrylamide], for which, in data set [5], half-maximal inhibition (IC50) was put at 82 nM. In addition, the GI50 in data set [1] was 660 nM. Moreover, in data set [6], the half-life at 5 μM was > 30 min.

On to `CCNCCn1c(CC(C)CC(C)(C)C)nc2cc(/C=C/C(=O)NO)ccc21` (stereo not shown) [Compound 40, 3-[1-(2-Ethylamino-ethyl)-2-(2,4,4-trimethyl-pentyl)-1H-benzoimidazol-5-yl]-N-hydroxy-acrylamide], for which the IC50 in data set [5] was determined as 27 nM. For the same molecule, the 50% growth inhibitory concentration (GI50) in data set [1] is 160 nM; in data set [2] it was < 500 nM; in data set [3], < 500 nM; in data set [4], < 500 nM. Moreover, in data set [6], the half-life at 5 μM was > 30 min.

In the case of `CCCCc1nc2cc(/C=C/C(=O)NO)ccc2n1CCNCC` [Compound 44, 3-[2-Butyl-1-(2-ethylamino-ethyl)-1H-benzoimidazol-5-yl]-N-hydroxy-acrylamide], the IC50 in data set [5] came out at 54 nM. The GI50 in data set [1] was 870 nM; in data set [2], 1000 to 5000 nM; in data set [3], 500 to 1000 nM; in data set [4] it was < 500 nM. In addition, the half-life at 5 μM in data set [6] was > 30 min.

As to `CCCCCCc1nc2cc(/C=C/C(=O)NO)ccc2n1CCNC(C)C` [Compound 50, 3-[2-Hexyl-1-(2-isopropylamino-ethyl)-1H-benzoimidazol-5-yl]-N-hydroxy-acrylamide], the 50% growth inhibitory concentration (GI50) in data set [1] is 170 nM; in data set [2], < 500 nM; in data set [3] it was < 500 nM; in data set [4], < 500 nM.

As for `CCCCCCc1nc2cc(/C=C/C(=O)NO)ccc2n1CCNCC` [Compound 52, 3-[1-(2-Ethylamino-ethyl)-2-hexyl-1H-benzoimidazol-5-yl]-N-hydroxy-acrylamide], in data set [5], the IC50 came out at 25 nM. Further, the concentration for 50% growth inhibition (GI50) is 210 nM in data set [1], < 500 nM in data set [2], < 500 nM in data set [3] and < 500 nM in data set [4]. Also, the half-life at 5 μM in data set [6] is > 30 min.

`CCCCCc1nc2cc(/C=C/C(=O)NO)ccc2n1CCN(C)C` [Compound 65, 3-[1-(2-Dimethylamino-ethyl)-2-pentyl-1H-benzoimidazol-5-yl]-N-hydroxy-acrylamide] displayed an IC50 in data set [5] of 78 nM. Besides, in data set [1], the GI50 was found to be 560 nM. In data set [7], the “Histone Acetylation activities (Histone-3)” value is given as “Active”.

As for `CCCCc1nc2cc(/C=C/C(=O)NO)ccc2n1CCN(C)C(C)C` [Compound 78, 3-{2-Butyl-1-[2-(isopropyl-methyl-amino)-ethyl]-1H-benzoimidazol-5-yl}-N-hydroxy-acrylamide], in data set [5], the IC50 turned out to be 44 nM. Besides, the GI50 in data set [1] is 540 nM. Also, in data set [6], the half-life at 5 μM is > 30 min.

In the case of `CCCCCCc1nc2cc(/C=C/C(=O)NO)ccc2n1C1CCNC1` (stereo not shown) [Compound 80, 3-(2-Hexyl-1-pyrrolidin-3-yl-1H-benzoimidazol-5-yl)-N-hydroxy-acrylamide], the half-inhibitory concentration (IC50) in data set [5] was determined as 40 nM. The GI50 in data set [1] came out at 1370 nM. The half-life at 5 μM in data set [6] was > 30 min.

Consider `CCCCCN(CC)CCn1cnc2cc(/C=C/C(=O)NO)ccc21` [Compound 88, 3-{1-[2-(Ethyl-pentyl-amino)-ethyl]-1H-benzoimidazol-5-yl}-N-hydroxy-acrylamide], for which the IC50 in data set [5] was 47 nM. For the same molecule, in data set [1], the GI50 stood at 550 nM. The half-life at 5 μM in data set [6] is > 30 min.

In the case of `CCCCN(CCn1cnc2cc(/C=C/C(=O)NO)ccc21)C(C)C` [Compound 108, 3-{1-[2-(Butyl-isopropyl-amino)-ethyl]-1H-benzoimidazol-5-yl}-N-hydroxy-acrylamide], half-maximal inhibition in data set [5] (IC50) required 43 nM. Also, the GI50 in data set [1] was 440 nM. Moreover, the half-life at 5 μM in data set [6] is > 30 min.
